According to ChEMBL document CHEMBL1201862, “PubChem BioAssay data set” (2004):
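All cell lines were grown in 96-well plates and treated with compound for 48 hours. The concentration for 50% growth inhibition is given as GI50.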 The source made the active and inactive calls. Cut-off read from the data, not from the text of the source: active = GI50 up to about 1.1 µM and inactive = higher.

Tests used:
Assay in all cases: NCI tumour cell line growth inhibition, 48 h
786-0 = system: 786-0
CAKI-1 = system: CAKI-1
COLO 205 = system: COLO 205
HL-60 = system: HL-60
HOP-92 = system: HOP-92
Hs-578T = system: Hs-578T
LOX IMVI = system: LOX IMVI
MOLT-4 = system: MOLT-4
NCI-H23 = system: NCI-H23
NCI-H522 = system: NCI-H522
NCI/ADR-RES = system: NCI/ADR-RES
OVCAR-4 = system: OVCAR-4
OVCAR-5 = system: OVCAR-5
SF-268 = system: SF-268
SNB-19 = system: SNB-19
SNB-75 = system: SNB-75
SR = system: SR
T47D = system: T47D
TK-10 = system: TK-10
K562 = system: K562

Compound	GI50 (786-0)	GI50 (CAKI-1)	GI50 (COLO 205)	GI50 (HL-60)	GI50 (HOP-92)	GI50 (Hs-578T)	GI50 (LOX IMVI)	GI50 (MOLT-4)	GI50 (NCI-H23)	GI50 (NCI-H522)	GI50 (NCI/ADR-RES)	GI50 (OVCAR-4)	GI50 (OVCAR-5)	GI50 (SF-268)	GI50 (SNB-19)	GI50 (SNB-75)	GI50 (SR)	GI50 (T47D)	GI50 (TK-10)	GI50 (K562)
O=C1OC(C2(O)OC(=O)c3ccccc32)c2ccccc21 (stereo not drawn)	> 100 µM (inactive)	> 100 µM (inactive)	> 100 µM (inactive)	> 100 µM (inactive)	> 100 µM (inactive)	> 100 µM (inactive)	> 100 µM (inactive)	> 100 µM (inactive)	> 100 µM (inactive)	> 100 µM (inactive)	> 100 µM (inactive)	> 100 µM (inactive)	> 100 µM (inactive)	> 100 µM (inactive)	> 100 µM (inactive)	> 100 µM (inactive)	> 100 µM (inactive)	> 100 µM (inactive)	> 100 µM (inactive)	
OC(Cc1cccc2ccccc12)CN1CCC(c2ccccc2)CC1 (stereo not drawn)	15 µM (inactive)	11.1 µM (inactive)	13 µM (inactive)	16.7 µM (inactive)	12.4 µM (inactive)	15.8 µM (inactive)	15.5 µM (inactive)		15.3 µM (inactive)	9.48 µM (inactive)	14.9 µM (inactive)		13.7 µM (inactive)	14.4 µM (inactive)	13 µM (inactive)	12.3 µM (inactive)	10.8 µM (inactive)	14.3 µM (inactive)	12.8 µM (inactive)	12.5 µM (inactive)
Cc1cc(O)c(C(C)C)cc1/N=C/c1ccccc1O	5.73 µM (inactive)	12.1 µM (inactive)	25.5 µM (inactive)	0.303 µM (active)	0.621 µM (active)	8.73 µM (inactive)	3.13 µM (inactive)	0.301 µM (active)	15.2 µM (inactive)	3.72 µM (inactive)	3.12 µM (inactive)	2.41 µM (inactive)	20.6 µM (inactive)	6.21 µM (inactive)	17.5 µM (inactive)		1.15 µM (inactive)	0.36 µM (active)	13.1 µM (inactive)	1.26 µM (inactive)
Nc1ccc(Oc2ccc(C34CC5CC6C3CC3CC4C(C5)C6(c4ccc(Oc5ccc(N)cc5)cc4)C3)cc2)cc1	13.4 µM (inactive)	19 µM (inactive)	< 0.01 µM (active)	7.14 µM (inactive)	2.9 µM (inactive)	25.4 µM (inactive)	20 µM (inactive)	7.98 µM (inactive)	26.4 µM (inactive)	12.8 µM (inactive)	> 74.6 µM (inactive)	11.1 µM (inactive)	> 100 µM (inactive)	22.6 µM (inactive)	9.53 µM (inactive)		21.9 µM (inactive)	9.14 µM (inactive)	21.6 µM (inactive)	10.2 µM (inactive)
COc1cccc(Nc2nc(-c3cccs3)nc3cc(OC)c(OC)cc23)c1	21.9 µM (inactive)	29 µM (inactive)	23.2 µM (inactive)	42.1 µM (inactive)	25 µM (inactive)	27.4 µM (inactive)		53.6 µM (inactive)	32.4 µM (inactive)	18.9 µM (inactive)	24.3 µM (inactive)	41.3 µM (inactive)	31.9 µM (inactive)	40.9 µM (inactive)	28.4 µM (inactive)	32.8 µM (inactive)	11 µM (inactive)	42.8 µM (inactive)	33.4 µM (inactive)	37.1 µM (inactive)
C=C1C2CCC3C4(C)CCCC(C)(C(=O)O)C4CCC3(C2)C1OC(=O)/C(C)=C/C (stereo not drawn)	60.7 µM (inactive)	26.2 µM (inactive)	29.6 µM (inactive)	29.9 µM (inactive)	25.6 µM (inactive)	35.2 µM (inactive)	34.5 µM (inactive)		36.8 µM (inactive)	31.8 µM (inactive)	21.1 µM (inactive)	41.6 µM (inactive)	28.4 µM (inactive)	38.7 µM (inactive)		70.8 µM (inactive)	2.98 µM (inactive)	43 µM (inactive)	72.8 µM (inactive)	
COCc1cc2c(cc1/C=C/[N+](=O)[O-])OCO2	16.9 µM (inactive)	19.6 µM (inactive)	18.2 µM (inactive)	23.4 µM (inactive)	18.8 µM (inactive)	19.5 µM (inactive)	27.5 µM (inactive)	> 100 µM (inactive)	27.4 µM (inactive)	19.2 µM (inactive)	25.2 µM (inactive)		16.4 µM (inactive)	20.7 µM (inactive)		17.9 µM (inactive)	53.3 µM (inactive)	21.1 µM (inactive)	16.9 µM (inactive)	> 100 µM (inactive)
COc1ccc(C[C@@H](C(=O)O[C@H](C)[C@H](NC(=O)[C@@H](CC(C)C)N(C)C(=O)C2CCCN2C(=O)[C@H](C)O)C(=O)N2CCCCNC(=O)[C@@H](C)C(=O)[C@H](C(C)C)OC(=O)C[C@H](O)[C@H]2CC(C)C)N(C)C(C)=O)cc1 (stereo partly drawn)	12.4 µM (inactive)	10.8 µM (inactive)	6.82 µM (inactive)	10.9 µM (inactive)	15 µM (inactive)	4.11 µM (inactive)		8.41 µM (inactive)	10.3 µM (inactive)	9.25 µM (inactive)	21.3 µM (inactive)	7.83 µM (inactive)	7.89 µM (inactive)	17.8 µM (inactive)	10.6 µM (inactive)	9.84 µM (inactive)	9.95 µM (inactive)	10.7 µM (inactive)	38.5 µM (inactive)	8.05 µM (inactive)
